Experimental data reported in patent US20240300902A1, “NOVEL TRANSGLUTAMINASE 2 INHIBITOR AND USE THEREOF” (MD BIOLAB CO., LTD., priority 2021, published 2024).

Target: T1, guinea pig liver-originated transglutaminase 2 (Cavia cutleri, UniProt P08587)
T1 construct: 1 mU of guinea pig liver-originated transglutaminase 2 (Sigma, St. Louis, MO, USA); purchased Sigma; host or cells: guinea pig liver
T1 sequence (P08587 1-690): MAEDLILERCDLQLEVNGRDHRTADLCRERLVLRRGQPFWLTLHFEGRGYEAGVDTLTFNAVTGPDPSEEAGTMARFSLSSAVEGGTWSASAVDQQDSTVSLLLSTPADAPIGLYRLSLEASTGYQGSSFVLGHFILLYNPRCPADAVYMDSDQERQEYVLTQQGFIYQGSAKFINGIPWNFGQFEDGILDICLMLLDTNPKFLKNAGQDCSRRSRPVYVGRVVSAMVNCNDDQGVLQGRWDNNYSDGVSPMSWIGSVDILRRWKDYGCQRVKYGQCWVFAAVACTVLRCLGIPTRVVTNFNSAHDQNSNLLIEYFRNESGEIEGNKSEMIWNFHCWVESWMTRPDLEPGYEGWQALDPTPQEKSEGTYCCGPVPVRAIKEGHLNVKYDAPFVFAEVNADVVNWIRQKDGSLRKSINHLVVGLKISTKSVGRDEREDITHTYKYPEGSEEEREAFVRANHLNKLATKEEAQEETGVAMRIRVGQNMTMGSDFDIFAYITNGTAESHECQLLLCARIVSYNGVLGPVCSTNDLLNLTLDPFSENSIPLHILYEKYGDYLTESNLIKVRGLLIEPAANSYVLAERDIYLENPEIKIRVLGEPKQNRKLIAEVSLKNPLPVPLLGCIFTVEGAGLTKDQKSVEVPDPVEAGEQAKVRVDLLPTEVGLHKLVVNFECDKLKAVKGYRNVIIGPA
Test: In vitro transglutaminase 2 assay (1), [1,4-14C] putrescine incorporation into succinylated casein
Assay type: biochemical
Protocol: Incorporation of [1,4-14C] putrescine into succinylated casein was measured to determine the inhibitory effect of each compound on the activity of transglutaminase 2 (TGase 2). 1 mU of guinea pig liver-originated transglutaminase 2 (Sigma, St. Louis, MO, USA) was preincubated with various concentrations of GK13 or GK921 in a 0.1 mL reaction buffer with or without 10 mM CaCl2 for 10 minutes, and 0.4 mL of a substrate solution containing 2% (w/v) succinylated casein and 100 nCi of [1,4-14C] putrescine. After incubation at 37° C. for 1 hour, 4 mL of cold (4° C.) 7.5% (w/v) trichloroacetic acid (TCA) was added to terminate the reaction. The TCA-insoluble precipitate was recovered with a GF/A-grade glass filter (Millipore, Billerica, MA, USA), washed with cold 5% (w/v) TCA, dried, and assessed with a scintillation counter (Beckman Coulter, Brea, CA, USA) to evaluate radiolabel binding. Transglutaminase 2 which was pre-incubated only with a buffer was used as a positive control. The scintillation counts were compared between the example and the positive control, and IC50 values were determined through the logistic linear regression method. The presented data were the mean values of three independent experiments. In this experimental example and the following experimental example, Streptonigrin (described as KN383 in each figure of the drawing), which is an existing transglutaminase 2 inhibitor, was used as a positive control.

With O=C1C(Cl)=C(Cl)C(=O)c2[nH]c(-c3ccc(Br)c(F)c3)nc21 [LDD3959, 2-(4-bromo-3-fluorophenyl)-5,6-dichloro-1H-benzo[d]imidazole-4,7-dione] the “mean value of the 2 μM LDD3959” value (2 μM, negative control 248.5, control 3606.5, standard deviation 0.01) was 0.09 and the “TGase2 enzyme activity inhibitory effect compared with streptonigrin (KN383, positive control)” value (same dose (2 μM)) was “two-fold or greater stronger TGase2 enzyme activity inhibitory effects than the control”.
